Legend:
[1] = Equilibrium humidity evaluation 75% RH/40° C., 10 days (Example 8, Experiment 6); type: physicochemical; details: Tartrate salt, t = 10 d at 75% RH at 40° C.
Procedure: The experimental procedure that accompany this experiment is provided in Section G.ii.
All forms were maintained under constant equilibrium humidity (75% RH). XRPD, DSC, TGA, PLM and ^1H NMR analyses were performed on the absorbents at t=5 d and t=10 d, to confirm their physical fates and to determine the extent of residual solvent exchange or sequestration.
100 mg portions of Tabernanthalog salts ([…]) were placed in the relevant open vials. The powders were finely divided and distributed evenly over the base of the vial, such that equal material coverage across the panel was observed. These samples were then maintained 40° C. under 75% RH. The samples were sub-sampled at intervals of 5 and 10 days and analyzed by ^1H NMR, HPLC, XRPD, DSC, TGA and PLM, for evidence of phase change or chemical degradation.

[2] = type: physicochemical; details: salt screen, Experiment 2
Procedure: Tabernanthalog (native) (50 mg, 1 wt) was charged to a solution of the relevant counter ion (1.0 mol equivalence of counter ion) in ethanol (5.0 vol, 250 μl). The mixtures were warmed to 85° C. and small aliquots of water were added until dissolution occurred (Table 212 for additional charges of solvent). The solutions were cooled and allowed to stand undisturbed under sub-ambient conditions overnight (Table 211). […] Products were isolated via centrifugation. The corresponding pellets were sub-sampled and analyzed wet by XRPD; after which, they were dried at 40° C. under reduced pressure over 20 h and reanalyzed by XRPD. […] Once the crystallization experiments were completed, salt formation was confirmed by ^1H NMR, XRPD, DSC and TGA.

[3] = DVS analyses of sorbate salt Form A / Form C (Example 10); type: physicochemical; details: 0% to 90% to 0% RH
Description: DVS analyses of Form A (Performed on batch reference: Experiment 11-Sample -A1) To determine whether Form A underwent form change at high % RH, DVS residues of Form A, from 0 to 80% RH and 0 to 90% RH, were examined. The specimens were equilibrated to constant mass, at 80% and 90% RH set-points, removed, placed in a capped vial, and analysed by XRPD and DSC. Based on the SC-XRD at 100 K, no regular voids in the crystal structure were large enough to accommodate non-crystal-bonded, molecular water with minimum probe radius of 1.4 Å.
The moisture sorption properties of the feed API were analysed by DVS Intrinsic instrument (Surface Measurement System). Approximately 20 to 50 mg of API was weighed onto an aluminium pan and loaded into the instrument equilibrated at 25° C. The sample was equilibrated under a dry atmosphere (0% relative humidity) for 60 minutes, before increasing the humidity from 0% to 30% at 5% step increment and from 30% to 90% at 10% step increment. A desorption cycle was also applied from 90% to 30% (10% step decrement) and from 30% to 0% (5% step decrement). A rate of change in mass per time unit (dm/dt) of 0.002%/min was set as the equilibrium parameter. Kinetic and isotherm graphs were calculated.
5. DVS Analyses: 0% to 90% DVS Mass Per Unit Time Equilibrated at Dm/Dt (0.0002%/Min)

[4] = Heat-up/cool down (HUCD) crystallization of the monofumarate salt (Experiment Reference 11); type: physicochemical; details: for XRPD (oven dried): form of product from HUCD crystallization of tabernanthalog fumarate Sample Reference 1 (Pattern #1), solvents per sample as in E1; for Observations (t = 0 @ T = 20° C.): input tabernanthalog fumarate Sample Reference 1 (Pattern #1), Solvent A/B: 11-A acetone/water, 11-B acetonitrile/water, 11-C butanol/water, 11-D tBME/methanol, 11-E DCM/methanol, 11-F ethanol/water, 11-G methyl acetate/water/methanol, 11-H 2-propanol/water, 11-1 methanol, 11-J MEK/water, 11-K 2-MeTHF/methanol, 11-L THF/water, 11-M toluene/methanol, 11-N water, 11-O dioxane/water, 11-P CPME/methan
Procedure: Separate portions of the tabernanthalog monofumarate salt (Pattern #1, Sample Reference 1, ca 75 mg, 1.0 wt.) were charged to separate vessels. The appropriate solvents (750 μl, 10.0 vol, refer to Table 106) were charged to the relevant vessels and subsequent charges of the appropriate co-solvent were made to accomplish dissolution at reflux. The solutions were cooled to 18 to 23° C. and allowed to stand undisturbed, until crystallization was judged complete. After this time the products were isolated by centrifugation, washed with recycled maturation solvent, dried under reduced pressure at 40° C. and analyzed by XRPD for evidence of alternative crystalline forms.

[5] = Solubility determinations in SIF buffers FaSSIF, FeSSIF, FaSSGF (Example 8, Experiment 5)
Procedure: The temperature was maintained at 37° C. for 24 h. […] The suspensions were sampled at the relevant time points and centrifuged. The centrifuged pellets, obtained at the time points were analysed by XRPD as a wet pellet and dried, for evidence of form change.
The temperature was maintained at 37° C. for 24 h.
The suspension was sampled at the relevant time points and centrifuged. […] The centrifuged pellets, obtained at the time points were analyzed by XRPD as a wet pellet and dried, for evidence of form change.

[6] = input batch 3-B1, before SIF buffer

## COc1ccc2c3c([nH]c2c1)CCN(C)CC3.O=C(O)C(O)C(O)C(=O)O [Sample 6-B2]
[1]
  Tabernanthalog RRT = 1.00 (trended HPLC data, chemical purity): 98.82

## COc1ccc2c3c([nH]c2c1)CCN(C)CC3.O=C(O)CC(O)(CC(=O)O)C(=O)O [Tabernanthalog · Citrate]
[2]
  Unique XRPD?: v. Disordered

## COc1ccc2c3c([nH]c2c1)CCN(C)CC3.O=C(O)C=CC(=O)O [Tabernanthalog · Maleate]
[2]
  Unique XRPD?: Disordered

## COc1ccc2c3c([nH]c2c1)CCN(C)CC3.O=C(O)C[C@H](O)C(=O)O [Tabernanthalog · Malate]
[2]
  Discrete melt (DSC)?: ✓
  Flat baseline (DSC)?: ✓
  Flat baseline pre-melt (TGA)?: ✓
  Unique XRPD?: ✓

## COc1ccc2c3c([nH]c2c1)CCN(C)CC3.O=S(=O)(O)CCS(=O)(=O)O [Tabernanthalog · Edisylate]
[2]
  Unique XRPD?: Disordered

## C/C=C/C=C/C(=O)O.COc1ccc2c3c([nH]c2c1)CCN(C)CC3.O [Form C (Pattern #2)]
[3]
  form change during DVS: reverted to Form A on the desorption cycle

## COc1ccc2c3c([nH]c2c1)CCN(C)CC3.O=C(O)/C=C/C(=O)O [Sample 11-E]
[4]
  XRPD (oven dried): Pattern #6b
  Observations (t = 0 @ T = 20° C.): suspension

## COc1ccc2c3c([nH]c2c1)CCN(C)CC3.O=C(O)/C=C/C(=O)O [Sample 11-K]
[4]
  XRPD (oven dried): Pattern #5
  Observations (t = 0 @ T = 20° C.): suspension

## COc1ccc2c3c([nH]c2c1)CCN(C)CC3.O=C(O)/C=C/C(=O)O [Sample 11-D]
[4]
  XRPD (oven dried): Pattern #5
  Observations (t = 0 @ T = 20° C.): cloudy

## COc1ccc2c3c([nH]c2c1)CCN(C)CC3.O=C(O)c1ccccc1 [Tabernanthalog · Benzoate]
[5]; [6]
  Trended HPLC data, Tabernanthalog (RRT 1.00): 99.23 % area
  Trended HPLC data, peak at RRT 0.86: 0.02 % area
  Trended HPLC data, peak at RRT 0.89: 0.04 % area
  Trended HPLC data, peak at RRT 0.93: 0.61 % area
  Trended HPLC data, peak at RRT 1.09: 0.08 % area
  Trended HPLC data, peak at RRT 1.11: 0.02 % area
[5]; t = 1 h in FaSSGF
  Trended HPLC data, Tabernanthalog (RRT 1.00): 99.33 % area
  Trended HPLC data, peak at RRT 0.93: 0.55 % area
  Trended HPLC data, peak at RRT 1.09: 0.07 % area
  Trended HPLC data, peak at RRT 1.10: 0.02 % area
  Trended HPLC data, peak at RRT 1.11: 0.03 % area
[5]; t = 1 h in FaSSIF
  Trended HPLC data, Tabernanthalog (RRT 1.00): 98.67 % area
  Trended HPLC data, peak at RRT 0.93: 0.92 % area
  Trended HPLC data, peak at RRT 1.08: 0.13 % area
  Trended HPLC data, peak at RRT 1.11: 0.28 % area
[5]; t = 1 h in FeSSIF
  Trended HPLC data, Tabernanthalog (RRT 1.00): 99.05 % area
  Trended HPLC data, peak at RRT 0.93: 0.84 % area
  Trended HPLC data, peak at RRT 1.08: 0.11 % area
[5]; t = 3 h in FaSSGF
  Trended HPLC data, Tabernanthalog (RRT 1.00): 99.34 % area
  Trended HPLC data, peak at RRT 0.93: 0.58 % area
  Trended HPLC data, peak at RRT 1.09: 0.07 % area
[5]; t = 3 h in FaSSIF
  Trended HPLC data, Tabernanthalog (RRT 1.00): 98.77 % area
  Trended HPLC data, peak at RRT 0.93: 1.04 % area
  Trended HPLC data, peak at RRT 1.08: 0.20 % area
[5]; t = 3 h in FeSSIF
  Trended HPLC data, Tabernanthalog (RRT 1.00): 99.03 % area
  Trended HPLC data, peak at RRT 0.93: 0.81 % area
  Trended HPLC data, peak at RRT 1.08: 0.10 % area
  Trended HPLC data, peak at RRT 1.11: 0.06 % area
[5]; t = 6 h in FaSSGF
  Trended HPLC data, Tabernanthalog (RRT 1.00): 99.33 % area
  Trended HPLC data, peak at RRT 0.93: 0.59 % area
  Trended HPLC data, peak at RRT 1.09: 0.08 % area
[5]; t = 6 h in FaSSIF
  Trended HPLC data, Tabernanthalog (RRT 1.00): 98.58 % area
  Trended HPLC data, peak at RRT 0.93: 1.26 % area
  Trended HPLC data, peak at RRT 1.08: 0.16 % area
[5]; t = 6 h in FeSSIF
  Trended HPLC data, Tabernanthalog (RRT 1.00): 98.69 % area
  Trended HPLC data, peak at RRT 0.93: 1.00 % area
  Trended HPLC data, peak at RRT 1.08: 0.15 % area
  Trended HPLC data, peak at RRT 1.10: 0.07 % area
  Trended HPLC data, peak at RRT 1.11: 0.09 % area
[5]; t = 24 h in FaSSGF
  Trended HPLC data, Tabernanthalog (RRT 1.00): 99.29 % area
  Trended HPLC data, peak at RRT 0.93: 0.63 % area
  Trended HPLC data, peak at RRT 1.09: 0.08 % area
[5]; t = 24 h in FaSSIF
  Trended HPLC data, Tabernanthalog (RRT 1.00): 98.01 % area
  Trended HPLC data, peak at RRT 0.93: 1.51 % area
  Trended HPLC data, peak at RRT 1.08: 0.24 % area
  Trended HPLC data, peak at RRT 1.10: 0.11 % area
  Trended HPLC data, peak at RRT 1.11: 0.13 % area
[5]; t = 24 h in FeSSIF
  Trended HPLC data, Tabernanthalog (RRT 1.00): 98.17 % area
  Trended HPLC data, peak at RRT 0.89: 0.15 % area
  Trended HPLC data, peak at RRT 0.93: 1.36 % area
  Trended HPLC data, peak at RRT 1.08: 0.19 % area
  Trended HPLC data, peak at RRT 1.10: 0.13 % area
[2]
  Discrete melt (DSC)?: ✓
  Flat baseline (DSC)?: ✓
  Flat baseline pre-melt (TGA)?: ✓
  Unique XRPD?: ✓

Reference: patent US20230257385A1, “SALT AND SOLID FORMS OF TABERNANTHALOG” (priority 2021, published 2023)
